Values of other authors, collected in US7196076B2, “Androgen receptor modulators and methods of use thereof” (Merck & Co., Inc., priority 2001, dated 2007).
Structures can show the parent of a compound that is named as a salt.

What was measured:
[1] = after 7 years of treatment
[2] = median of 22 months of treatment

For `NCCCC(O)(P(=O)(O)O)P(=O)(O)O` [alendronate, 4-amino-1-hydroxybutylidene-1,1-bisphosphonic acid monosodium salt, trihydrate], the “increase in spinal BMD” value [1] is listed as 11%.
In the case of “hPTH(1–34): human parathyroid hormone 1–34 fragment (SVSEIQLMHNLGKHLNSMERVEWLRKKLQDVHNF; Parathyroid hormone; UniProt P01270 32-65, looked up, fragment)”, the “reduction in nonvertebral fractures” value [2] is given as 54% and the “reduction in spine fractures” value [2] is given as ≥ 65%.
